{"source": "patent US6602896B1", "about": "“p38MAPK inhibitor and uses thereof” (The Board of Trustees of the University of Arkansas, priority 1999, dated 2003)", "key": {"[1]": {"test_system": "MEK-1/2", "assay": "Immunoblot of phospho-MEK-1/2 in HepG2 cells", "assay_type": "cell-based, human", "details": "SB202190 2.5 μM", "method": "(§1) 2×10^5 cells were grown and treated as described in FIG. 1. After the indicated times, equal amounts of cell lysates were blotted with anti-phospho-p42/44^MAPK antibody, phosphorylation-independent p42/44^MAPK antibody, anti-phospho p46/54^JNK antibody, anti-phospho-MEK-1/2, or phosphorylation-independent MKP-1.\nHepG2 cells were cultured in the absence or presence of 1 μM staurosporine or 5 μM PD98059 for 30 min. SB202190 (2.5 μM) was then added to the cells for 4 h, cell lysate was subjected to immunoblotting to measure the phosphorylation levels of p42/44^MAPK and MEK-1/2. […]\nProteins were fractionated by SDS-PAGE with an 10% acrylamide separation gel, and the separated proteins were transferred to nitrocellulose, and processed as described previously (43, 44). […] After further washing in Tris/NaCl/Tween-20, membranes were incubated for 1 h with horseradish peroxidase-linked anti-IgG secondary antibody (Bio-Rad, diluted 1:5000), and immunoreactive proteins were detected by ECL as described by the supplier. Quantitative analyses of protein levels were performed by densitometric scanning of the autoradiograms, and are representative of 3 or more independent experiments."}, "[2]": {"test_system": "p38^MAPK α- and β-isoforms", "details": "cited from earlier work"}, "[3]": {"test_system": "squalene synthase (SS)", "assay": "Northern blotting of squalene synthase (SS) mRNA in HepG2 cells", "assay_type": "cell-based, human", "details": "SB202190 2.5 μM", "method": "5×10^5 cells were plated on day 0. On day 2, cells were refed with fresh medium. On day. 4, cells were either left untreated (0) or treated for the indicated times with SB202190 (2.5 μM) in medium containing 0.5% FBS. Total RNA was isolated and subjected to Northern blotting to determine amounts of LDL receptor, squalene synthase (SS) genes, and actin mRNAs. Autoradiographs were quantitated densitometrically. LDL receptor mRNA levels were normalized to actin mRNA levels. In the bottom panel, results are expressed as the fold induction by SB 202190 as compared with uninduced cells (set at 1). Values obtained are the averages of three separate experiments, with the standard deviations shown. […]\nTotal RNA was isolated using TRIzol, and Northern blotting was done essentially as described earlier (43, 44). […] The relative intensities of specific bands were determined densitometrically within the linear range of the film on a model 300A laser densitometer (Molecular Dyanamics, Calif.) with Image Quant software. […]"}, "[4]": {"test_system": "p42/44^MAPK", "assay": "Immunoblot of phospho-p42/44MAPK in HepG2 cells", "assay_type": "cell-based, human", "details": "SB202190 2.5 μM", "method": "as §1\nHepG2 cells were cultured in the absence or presence of 1 μM staurosporine or 5 μM PD98059 for 30 min. SB202190 (2.5 μM) was then added to the cells for 4 h, cell lysate was subjected to immunoblotting to measure the phosphorylation levels of p42/44^MAPK and MEK-1/2.\nHuman hepatoma cell line HepG2 and its derivative HepG2-ΔRaf-1:ER cell line that stably expresses the ΔRaf-1:ER chimera were maintained as monolayer cultures in a humidified 5% CO2 atmosphere at 37° C. in Eagle's minimum essential medium (EMEM) (Bio Whittaker, Md.) supplemented with 10% fetal bovine serum (FBS) (Life Technologies Inc.), 2 mM L-glutamine, 20 units/ml penicillin and 20 μg/ml streptomycin sulphate.\nProteins were fractionated by SDS-PAGE with an 10% acrylamide separation gel, and the separated proteins were transferred to nitrocellulose, and processed as described previously (43, 44). Briefly, membranes were incubated in 20 mM Tris-HCl, pH 7.6, 137 mM NaCl, 0.2% v/v Tween-20 (Tris/NaCl/Tween-20) with 5% w/v non-fat dried milk for 1 h, washed in Tris/NaCl/Tween-20 (3×5 min), and incubated for 1 h with primary antibody in Tris/NaCl/Tween-20 containing 1% milk at room temperature for non phospho-specific antibodies and overnight at 4° C. for phospho-specific antibodies. The following dilutions were used for individual antibodies against different proteins: p42/44^MAPK (1:1600); phosphop-42/44^MAPK (1:1000); phosphop-46/54^JNK (1:1000); phospho-p38^MAPK (1:1600); phospho-MEK-1/2 (1:1000); MKP-1 (1:1500). After further washing in Tris/NaCl/Tween-20, membranes were incubated for 1 h with horseradish peroxidase-linked anti-IgG secondary antibody (Bio-Rad, diluted 1:5000), and immunoreactive proteins were detected by ECL as described by the supplier. Quantitative analyses of protein levels were performed by densitometric scanning of the autoradiograms, and are representative of 3 or more independent experiments.\nHepG2 cells were incubated with SB202190, and the activity of p42/44^MAPK and p46/54^JNK was determined by immunoblot analysis with antibodies that recognized the activated phosphorylated forms of these kinases in cell extracts obtained at different times."}, "[5]": {"test_system": "p38^MAPK γ- and δ-isoforms", "details": "cited from earlier work"}}, "note": "“Also recorded” adds a separate entry of the source."}
{"smiles": "Oc1ccc(-c2nc(-c3ccc(F)cc3)c(-c3ccncc3)[nH]2)cc1", "note": "[SB202190, 4-(4-Fluorophenyl)-2-(4-hydroxyphenyl)-5-(4-pyridyl) 1H-imidazole]", "values": [{"measurement": "kinetics of MEK-1/2 phosphorylation", "setting": "[1]", "value": "paralleled the appearance of p42/44^MAPK"}, {"measurement": "inhibition of p38MAPK α- and β-isoforms", "setting": "[2]", "value": "selectively inhibit both p38^MAPK α- and β-isoforms; also recorded: inhibited"}, {"measurement": "effect on expression of actin gene or sterol-sensitive gene SS", "setting": "[3]", "value": "without significantly affecting expression"}, {"measurement": "activation of p42/44MAPK (phosphorylation)", "setting": "[4]", "value": "delayed and prolonged activation"}, {"measurement": "effect on p42/44MAPK protein levels", "setting": "[4]", "value": "no effect on p42/44^MAPK protein levels"}, {"measurement": "time of maximal p42/44MAPK activation after stimulation", "setting": "[4]", "value": "4 to 8", "unit": "h"}, {"measurement": "time of weak p42/44MAPK activation after treatment", "setting": "[4]", "value": 1, "unit": "h"}, {"measurement": "time until which activated p42/44MAPK remained elevated", "setting": "[4]; 24 hours was maximum time point measured", "value": "≥ 24", "unit": "h"}, {"measurement": "inhibition of p38MAPK γ- and δ-isoforms", "setting": "[5]", "value": "insensitive"}, {"measurement": "effect on homologues p38MAPK γ (SAPK3) and SAPK4", "setting": "[5]; even at higher concentrations (100 μM)", "value": "without effect"}]}
